From patent US9445594B2, “Molecules having certain pesticidal utilities, intermediates, compositions, and processes, related thereto” (priority 2014, dated 2016)

How the values were obtained:
Assay type in all cases: in vivo
[1] = test system: Corn Earworm (Helicoverpa zea, HELIZE) ("CEW"); experiment: Bioassays on CEW, 128-well diet tray assay; conditions: 168 h, second instar larvae, 50 μg/cm^2 on artificial diet, 25° C., five to seven days, average of eight wells, read-out: CEW % Control (or Mortality) rating
Description: Certain molecules disclosed in this document were tested against BAW, CEW, and CL using procedures described in the following examples. In the reporting of the results, the “BAW, CEW, & CL Rating Table” was used (See Table Section).
Bioassays on CEW were conducted using a 128-well diet tray assay. one to five second instar CEW larvae were placed in each well (3 mL) of the diet tray that had been previously filled with 1 mL of artificial diet to which 50 μg/cm^2 of the test compound (dissolved in 50 μL of 90:10 acetone-water mixture) had been applied (to each of eight wells) and then allowed to dry. Trays were covered with a clear self-adhesive cover, and held at 25° C., 14:10 light-dark for five to seven days. Percent mortality was recorded for the larvae in each well; activity in the eight wells was then averaged. The results are indicated in the table entitled “Table ABC: Biological Results” (See Table Section). Bioassays on CL

[2] = test system: Beet Armyworm (Spodoptera exigua, LAPHEG) ("BAW"); experiment: Bioassays on BAW, 128-well diet tray assay; conditions: 168 h, second instar larvae, 50 μg/cm^2 on artificial diet, 25° C., five to seven days, average of eight wells, read-out: BAW % Control (or Mortality) rating
In short: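 One to five second-instar larvae were placed per well on artificial diet surface-treated with 50 μg/cm^2 compound from 90:10 acetone-water, dried before infestation. Trays were held at 25 °C, 14:10 light-dark, for five to seven days. Percent mortality was averaged over eight wells.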

[3] = test system: Green Peach Aphid (Myzus persicae, MYZUPE) ("GPA"); experiment: Bioassays on GPA, foliar spray of infested cabbage seedlings; conditions: 72 h, 200 ppm spray on cabbage seedlings, graded after three days, Abbott corrected % control, read-out: GPA % Control (or Mortality) rating
Description: Certain molecules disclosed in this document were tested against GPA using procedures described in the following example. In the reporting of the results, the “GPA Rating Table” was used (See Table Section).
Cabbage seedlings grown in 3-inch pots, with 2-3 small (3-5 cm) true leaves, were used as test substrate. The seedlings were infested with 20-50 GPA (wingless adult and nymph stages) one day prior to chemical application. Four pots with individual seedlings were used for each treatment. Test compounds (2 mg) were dissolved in 2 mL of acetone/methanol (1:1) solvent, forming stock solutions of 1000 ppm test compound. The stock solutions were diluted 5× with 0.025% Tween 20 in water to obtain the solution at 200 ppm test compound. A hand-held aspirator-type sprayer was used for spraying a solution to both sides of […] leaves until runoff. Reference plants (solvent check) were sprayed with the diluent only containing 20% by volume of acetone/methanol (1:1) solvent. Treated plants were held in a holding room for three days at approximately 25° C. and ambient relative humidity (RH) prior to grading. Evaluation was conducted by counting the number of live aphids per plant under a microscope. Percent Control was measured by using Abbott's correction formula (W. S. Abbott, “A Method of Computing the Effectiveness of an Insecticide” J. Econ. Entomol. 18 (1925), pp. 265-267) as follows. Corrected % Control=100*(X−Y)/X • where • X=No. of live aphids on solvent check plants and • Y=No. of live aphids on treated plants

[4] = test system: Yellow Fever Mosquito (Aedes aegypti, AEDSAE) ("YFM"); experiment: Bioassays on YFM, 96-well plate larval assay; conditions: about 1 day-old larvae, from 4000 ppm DMSO master plate diluted, room temperature, scored after 3 days
In short: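 Compounds from 4000 ppm DMSO master plates, diluted in 90:10 water:acetone, dispensed into 96-well plates, six replicates. About 1-day-old larvae added in liver-powder water. Wells covered, held 3 days at room temperature, then scored for mortality.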

[5] = test system: Cabbage Looper (Trichoplusia ni, TRIPNI) ("CL"); experiment: Bioassays on CL, 128-well diet tray assay; conditions: 168 h, second instar larvae, 50 μg/cm^2 on artificial diet, 25° C., five to seven days, average of eight wells, read-out: CL % Control (or Mortality) rating
In short: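 Second-instar larvae (one to five per well) on artificial diet surface-treated with 50 μg/cm^2 compound in 90:10 acetone-water, eight wells per treatment. Held at 25° C., 14:10 light-dark for five to seven days. Percent mortality scored per well and averaged over the eight wells.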

| SMILES | mortality at 50 µg/cm2 [1] | mortality at 50 µg/cm2 [2] | mortality at 200 ppm [3] | YFM % Control (or Mortality) rating [4] | mortality at 50 µg/cm2 [5] |
| --- | --- | --- | --- | --- | --- |
| CCOc1ccc(NC(=O)Nc2ccc(-c3ncn(-c4ccc(OC(F)(F)F)cc4)n3)cc2)cc1 [F2, 1-(4-ethoxyphenyl)-3-(4-(1-(4-(trifluoromethoxy)phenyl)-1H-1,2,4-triazol-3-yl)phenyl)urea] | 0% | 0% | 0% | – | – |
| CCOc1ccc(NC(=O)Nc2ccc(-c3ncn(-c4ccc(OC(F)(F)F)cc4)n3)cc2)cn1 [F8, 1-(6-Ethoxypyridin-3-yl)-3-(4-(1-(4-(trifluoromethoxy)phenyl)-1H-1,2,4-triazol-3-yl)phenyl)urea] | 0% | 0% | 0% | – | – |
| COc1ccc(NC(=O)Nc2ccc(-c3ncn(-c4ccc(OC(F)(F)F)cc4)n3)cc2)cn1 [F10, 1-(6-Methoxypyridin-3-yl)-3-(4-(1-(4-(trifluoromethoxy)phenyl)-1H-1,2,4-triazol-3-yl)phenyl)urea] | 50 to 100% | 50 to 100% | 0 to 80% | – | – |
| O=C(Nc1ccc(-c2ncn(-c3ccc(OC(F)(F)F)cc3)n2)cc1)Nc1ccccc1-c1ccco1 [F21, 1-(2-(Furan-2-yl)phenyl)-3-(4-(1-(4-(trifluoromethoxy)phenyl)-1H-1,2,4-triazol-3-yl)phenyl)urea] | 50 to 100% | 50 to 100% | – | D (No activity noticed in this bioassay) | 50 to 100% |
| FC(F)(F)Oc1ccc(-n2cnc(-c3ccc(NC(=S)Nc4ccccc4-c4noc(C5CC5)n4)cc3)n2)cc1 [F23, 1-(2-(5-Cyclopropyl-1,2,4-oxadiazol-3-yl)phenyl)-3-(4-(1-(4-(trifluoromethoxy)phenyl)-1H-1,2,4-triazol-3-yl)phenyl)thiourea] | 50 to 100% | 50 to 100% | – | A (80-100) | 50 to 100% |
| Cc1ccc(C(C)C)c(NC(=S)NCCCc2ccc(-c3ncn(-c4ccc(OC(F)(F)F)cc4)n3)cc2)c1 [F29, 1-(2-isopropyl-5-methylphenyl)-3-(3-(4-(1-(4-(trifluoromethoxy)phenyl)-1H-1,2,4-triazol-3-yl)phenyl)propyl)thiourea] | 50 to 100% | 50 to 100% | – | A (80-100) | 50 to 100% |
| FC(F)(F)Oc1ccc(-n2cnc(-c3ccc(NC(=S)Nc4ccccc4-c4ccco4)cc3)n2)cc1 [F30, 1-(2-(Furan-2-yl)phenyl)-3-(4-(1-(4-(trifluoromethoxy)phenyl)-1H-1,2,4-triazol-3-yl)phenyl)thiourea] | 50 to 100% | 50 to 100% | – | A (80-100) | 50 to 100% |
| CC(C)c1ccccc1NC(=O)NCc1ccc(-c2ncn(-c3ccc(OC(F)(F)C(F)(F)F)cc3)n2)cc1 [F34, 1-(2-isopropylphenyl)-3-(4-(1-(4-(perfluoroethoxy)phenyl)-1H-1,2,4-triazol-3-yl)benzyl)urea] | 50 to 100% | 0% | – | – | 50 to 100% |
| Cc1nc(Cl)ccc1NC(=O)Nc1ccc(-c2ncn(-c3ccc(OC(F)(F)F)cc3)n2)cc1 [F36, 1-(6-Chloro-2-methylpyridin-3-yl)-3-(4-(1-(4-(trifluoromethoxy)phenyl)-1H-1,2,4-triazol-3-yl)phenyl)urea] | 50 to 100% | 50 to 100% | 0 to 80% | – | – |
| O=C(Nc1ccc(-c2ncn(-c3ccc(OC(F)(F)F)cc3)n2)cc1)Nc1ccccc1C1CC1 [F40, 1-(2-cyclopropylphenyl)-3-(4-(1-(4-(trifluoromethoxy)phenyl)-1H-1,2,4-triazol-3-yl)phenyl)urea] | 50 to 100% | 50 to 100% | – | – | 50 to 100% |
| CCOC(=O)c1ccc(NC(=O)Nc2ccc(-c3ncn(-c4ccc(OC(F)(F)F)cc4)n3)cc2)c(C)n1 [F41, Ethyl 6-methyl-5-(3-(4-(1-(4-(trifluoromethoxy)phenyl)-1H-1,2,4-triazol-3-yl)phenyl)ureido)picolinate] | 0% | 0% | 0% | – | – |
| CC(C)n1cnnc1-c1ccccc1NC(=S)Nc1ccc(-c2ncn(-c3ccc(OC(F)(F)F)cc3)n2)cc1 [F48, 1-(2-(4-isopropyl-4H-1,2,4-triazol-3-yl)phenyl)-3-(4-(1-(4-(trifluoromethoxy)phenyl)-1H-1,2,4-triazol-3-yl)phenyl)thiourea] | 0 to 50% | 50 to 100% | – | A (80-100) | 50 to 100% |
| CC(C)c1ccccc1NC(=S)Nc1ccc(-c2ncn(-c3ccc(C(F)(F)F)cc3)n2)cc1 [F53, 1-(2-isopropylphenyl)-3-(4-(1-(4-(trifluoromethyl)phenyl)-1H-1,2,4-triazol-3-yl)phenyl)thiourea] | 50 to 100% | 50 to 100% | 0 to 80% | A (80-100) | – |
| CC(C)n1cnnc1-c1ccccc1NC(=O)Nc1ccc(-c2ncn(-c3ccc(OC(F)(F)F)cc3)n2)cc1 [F55, 1-(2-(4-Isopropyl-4H-1,2,4-triazol-3-yl)phenyl)-3-(4-(1-(4-(trifluoromethoxy)phenyl)-1H-1,2,4-triazol-3-yl)phenyl)urea] | 0% | 50 to 100% | – | A (80-100) | 50 to 100% |
| Cc1ccc(C(C)C)c(NC(=O)Nc2ccc(-c3ncn(-c4ccc(OC(F)(F)C(F)(F)F)cc4)n3)cc2)c1 [F57, 1-(2-Isopropyl-5-methylphenyl)-3-(4-(1-(4-(perfluoroethoxy)phenyl)-1H-1,2,4-triazol-3-yl)phenyl)urea] | 50 to 100% | 50 to 100% | – | D (No activity noticed in this bioassay) | 50 to 100% |
| FC(F)(F)Oc1ccc(-n2cnc(-c3ccc(NC(=S)Nc4ccccc4Cc4ccccc4)cc3)n2)cc1 [F58, 1-(2-Benzylphenyl)-3-(4-(1-(4-(trifluoromethoxy)phenyl)-1H-1,2,4-triazol-3-yl)phenyl)thiourea] | 50 to 100% | 50 to 100% | – | D (No activity noticed in this bioassay) | 50 to 100% |
| CC(C)c1ccccc1NC(=O)NCc1ccc(-c2ncn(-c3ccc(OC(F)(F)F)cc3)n2)cc1 [F65, 1-(2-Isopropylphenyl)-3-(4-(1-(4-(trifluoromethoxy)phenyl)-1H-1,2,4-triazol-3-yl)benzyl)urea] | 0 to 50% | 0% | – | D (No activity noticed in this bioassay) | 50 to 100% |
| O=C(NCc1ccc(-c2ncn(-c3ccc(OC(F)(F)C(F)(F)F)cc3)n2)cc1)Nc1ccccc1-c1ccccc1 [F73, 1-([1,1′-Biphenyl]-2-yl)-3-(4-(1-(4-(perfluoroethoxy)phenyl)-1H-1,2,4-triazol-3-yl)benzyl)urea] | 50 to 100% | 50 to 100% | – | – | 50 to 100% |
| FC(F)(F)Oc1ccc(-n2cnc(-c3ccc(NC(=S)Nc4ccccc4-n4cccc4)cc3)n2)cc1 [F74, 1-(2-(1H-Pyrrol-1-yl)phenyl)-3-(4-(1-(4-(trifluoromethoxy)phenyl)-1H-1,2,4-triazol-3-yl)phenyl)thiourea] | 50 to 100% | 50 to 100% | – | – | 50 to 100% |
